For assay [1], the target named is T1, Thymidine phosphorylase (Homo sapiens) (UniProt P19971).
T1 sequence (whole entry): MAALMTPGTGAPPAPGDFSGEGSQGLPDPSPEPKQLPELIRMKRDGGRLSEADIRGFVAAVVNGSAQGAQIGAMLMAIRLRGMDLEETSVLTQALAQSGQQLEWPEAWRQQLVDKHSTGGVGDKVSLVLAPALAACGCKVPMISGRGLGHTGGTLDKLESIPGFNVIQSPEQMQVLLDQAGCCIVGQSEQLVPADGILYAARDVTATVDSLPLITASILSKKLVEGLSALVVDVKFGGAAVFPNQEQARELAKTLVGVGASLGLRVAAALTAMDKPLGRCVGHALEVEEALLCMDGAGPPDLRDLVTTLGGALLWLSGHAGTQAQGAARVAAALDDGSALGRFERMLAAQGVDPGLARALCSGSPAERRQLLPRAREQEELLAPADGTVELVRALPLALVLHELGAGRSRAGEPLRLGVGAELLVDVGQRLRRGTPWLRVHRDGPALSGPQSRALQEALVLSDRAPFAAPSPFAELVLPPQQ
Briefly: Inhibitory activity (134 uM) against Escherichia coli thymidine phosphorylase.

For assay [2], the target named is Thymidine phosphorylase (Escherichia coli) (UniProt P07650). Put plainly: Inhibitory activity (105 uM) against Escherichia coli thymidine phosphorylase.
Sequence of Thymidine phosphorylase (Escherichia coli) (P07650 whole entry, looked up): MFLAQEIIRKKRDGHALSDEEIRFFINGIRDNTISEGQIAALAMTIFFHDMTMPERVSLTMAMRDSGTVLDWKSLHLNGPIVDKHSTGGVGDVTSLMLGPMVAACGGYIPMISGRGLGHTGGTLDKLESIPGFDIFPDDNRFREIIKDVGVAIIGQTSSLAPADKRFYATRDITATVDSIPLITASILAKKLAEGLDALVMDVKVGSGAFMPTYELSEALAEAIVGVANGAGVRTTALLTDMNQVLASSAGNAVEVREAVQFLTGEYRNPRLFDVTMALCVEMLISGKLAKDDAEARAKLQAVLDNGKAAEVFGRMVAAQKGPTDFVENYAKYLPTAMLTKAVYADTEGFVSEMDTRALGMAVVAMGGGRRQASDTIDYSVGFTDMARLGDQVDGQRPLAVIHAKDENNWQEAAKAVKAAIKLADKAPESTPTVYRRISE

Usually inhibition stands for the percentage by which the read-out fell short of the control. `C=CCN/C(S)=N/C=C1C(=O)NC(=O)NC1=O` had an inhibition in assay [1] of 60%.

Take `CCCCC1(/C=N/N=C(/N)S)NC(=O)NC1=O` (configuration not stated): the inhibition in assay [2] turned out to be 23%.

These data come from ChEMBL document CHEMBL1136315, “Identification of a novel class of inhibitor of human and Escherichia coli thymidine phosphorylase by in silico screening” (Bioorg Med Chem Lett, 2003).
